Structures are written as SMILES.

By EC50 is commonly meant the concentration that produces a half-maximal response.

For the first experiment, the system named is HBV viral load production from HepAD38 cells. The experiment in a line: Viral production from HepAD38 cells: viral load in supernatant by qPCR of the HBV core sequence. It counts as cell-based. To be noted: 5 days incubation, qPCR of supernatant HBV DNA vs DMSO control, read-out: viral load lowering EC50 (Activity). The procedure, abridged:
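Viral load was measured by qPCR of the HBV core region in supernatant, quantified against DNA standards and compared with DMSO wells. Cells (50,000/well, tetracycline withdrawn, 2% FBS) received compound from 10 μM final for 5 days; EC50 from four-parameter nonlinear regression.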
For orientation: Quantitative PCR measures a nucleic acid by following its amplification.
For `Cc1cccc(CNC(=O)C2CC(C(=O)Nc3ccc(F)c(Cl)c3)N(C)S(=O)(=O)N2)n1` (single isomer, unassigned; isomer-b) [Compound 716-ISOMER-B, N3-(3-chloro-4-fluoro-phenyl)-2-methyl-N5-[(6-methyl-2-pyridyl)methyl]-1,1-dioxo-1,2,6-thiadiazinane-3,5-dicarboxamde], the EC50 is 100 to 10000 nM.

In the case of `CN1C(C(=O)Nc2ccc(F)c(Cl)c2)CC(C(=O)NCc2cnc(-c3ccc(OCCCN4CCSCC4)cc3)s2)NS1(=O)=O` (single isomer, unassigned) [Compound 925-ISOMER-B, N3-(3-chloro-4-fluoro-phenyl)-2-methyl-1,1-dioxo-N5-[[2-[4-(3-thiomorpholinopropoxy)phenyl]thiazol-5-yl]methyl]-1,2,6-thiadiazinane-3,5-dicarboxamide], the EC50 lay in the range of 100 to 10000 nM.

For `Cc1nc(-c2ccccc2)sc1CNC(=O)C1CC(C(=O)Nc2ccc(F)c(C#N)c2)N(C)S(=O)(=O)N1` (single isomer, unassigned) [1136-ISOMER-B, N3-(3-cyano-4-fluoro-phenyl)-2-methyl-N5-[(4-methyl-2-phenyl-thiazol-5-yl)methyl]-1,1-dioxo-1,2,6-thiadiazinane-3,5-dicarboxamide], the EC50 is 100 to 10000 nM.

As to `CN1C(C(=O)Nc2ccc(F)c(Cl)c2)CC(C(=O)NC2CCN(c3cc(CN4CCCCC4)ccn3)CC2)NS1(=O)=O` (single isomer, unassigned; isomer-b) [Compound 975-ISOMER-B, N3-(3-chloro-4-fluroo-phenyl)-2-methyl-1,1-dioxo-N5-[1-[4-(1-piperidylmethyl)-2-pyridyl]-4-piperidyl]-1,2,6-thiadiazinane-3,5-dicarboxamide], the EC50 lay within 100 to 10000 nM.

In the case of `Cc1cc(CNC(=O)C2CC(C(=O)Nc3ccc(F)c(Cl)c3)N(C)S(=O)(=O)N2)n(C)n1` (single isomer, unassigned) [Compound 482-ISOMER-B, N3-(3-chloro-4-fluoro-phenyl)-N5-[(2,5-dimethylpyrazol-3-yl)methyl]-2-methyl-1,1-dioxo-1,2,6-thiadiazinane-3,5-dicarboxamide], the EC50 was in the range of 100 to 10000 nM.

Turning to `CN1C(C(=O)Nc2ccc(F)c(Cl)c2)CC(C(=O)NCc2cnc(-c3cccc(Cl)c3)s2)NS1(=O)=O` (single isomer, unassigned; isomer-b) [Compound 913-ISOMER-B, N3-(3-chloro-4-fluoro-phenyl)-N5-[[2-(3-chlorophenyl)thiazol-5-yl]methyl]-2-methyl-1,1-dioxo-1,2,-thiadiazinane-3,5-dicarboxamide], the EC50 is less than 50 nM.

On to `CN1C(C(=O)Nc2ccc(F)c(Cl)c2)CC(C(=O)NC2CCN(c3ncccn3)CC2)NS1(=O)=O` (single isomer, unassigned) [Compound 855-ISOMER-B, N3-(3-chloro-4-fluoro-phenyl)-2-methyl-1,1-dioxo-N5-(1-pyrimidin-2-yl-4-piperidyl)-1,2,6-thiadiazinane-3,5-dicarboxamide], for which the EC50 was 100 to 10000 nM.

The same experiment, now with this note: Hepatitis B virus, HePAD38, 120 h, 5 days incubation, qPCR of supernatant HBV DNA vs DMSO control, read-out: viral load lowering EC50 (Activity).
`Cc1noc(CNC(=O)C2CC(C(=O)Nc3ccc(F)c(Cl)c3)N(C)S(=O)(=O)N2)n1` (stereo not shown) [Compound 685]: the EC50 fell in the range of 100 to 10000 nM.

In the case of `CN1C(C(=O)Nc2ccc(F)c(Cl)c2)CC(C(=O)NC2CCN(c3ccnc(Cl)c3)CC2)NS1(=O)=O` (stereo not shown) [Compound 1012], the EC50 was less than 50 nM.

For the compound `CN1C(C(=O)Nc2ccc(F)c(Cl)c2)CC(C(=O)NCc2nn(-c3ccccc3Cl)c3ccccc23)NS1(=O)=O` (stereo not shown) [Compound 1073], the EC50 is less than 50 nM.

`CN1C(C(=O)Nc2ccc(F)c(Cl)c2)CC(C(=O)NCc2ccn(-c3ccccc3)n2)NS1(=O)=O` (stereo not shown) [Compound 991]: the concentration for a half-maximal effect (EC50) was less than 50 nM.

Regarding `Cc1nc(-c2ccccc2Cl)sc1[C@@H](NC(=O)C1CC(C(=O)Nc2ccc(F)c(Cl)c2)N(C)S(=O)(=O)N1)c1ccccc1` (single isomer, unassigned) [1100-ISOMER-B], the EC50 lay within 100 to 10000 nM.

In the case of `CN1C(C(=O)Nc2ccc(F)c(C#N)c2)CC(C(=O)NC2CC2c2ccccc2)NS1(=O)=O` (stereo not shown) [Compound 826], the EC50 lay within 100 to 10000 nM.

For `CN1C(C(=O)Nc2ccc(F)c(Cl)c2)CC(C(=O)NC2CCN(c3ccccn3)CC2)NS1(=O)=O` (stereo not shown) [Compound 769], the EC50 was less than 50 nM.

`CN1C(C(=O)Nc2ccc(F)c(Cl)c2)CC(C(=O)NCc2cn(-c3ccccc3)nn2)NS1(=O)=O` (stereo not shown) [Compound 1147]: the EC50 lay in the range of 50 to 100 nM.

Regarding `CN1C(C(=O)Nc2ccc(F)c(Cl)c2)CC(C(=O)NC2CCN(c3ncccn3)CC2)NS1(=O)=O` (stereo not shown) [Compound 855], the half-maximal effective concentration (EC50) was less than 50 nM.

Take `Cc1nc(-c2ccc(OCCN3CCCCC3)cc2)sc1CNC(=O)C1CC(C(=O)Nc2ccc(F)c(Cl)c2)N(C)S(=O)(=O)N1` (stereo not shown) [Compound 1087]: the EC50 is less than 50 nM.

Take `Cc1nc(-c2ccccc2)sc1CNC(=O)C1CC(C(=O)Nc2ccnc(Cl)c2)N(C)S(=O)(=O)N1` (stereo not shown) [Compound 1137]: the EC50 was less than 50 nM.

For `CC(C)OC(=O)N1CCC(NC(=O)C2CC(C(=O)Nc3ccc(F)c(Cl)c3)N(C)S(=O)(=O)N2)CC1` (stereo not shown) [Compound 766], the EC50 was less than 50 nM.

For the compound `CN1C(C(=O)Nc2ccc(F)c(Cl)c2)CC(C(=O)NC2CCN(c3ccnc(F)c3)CC2)NS1(=O)=O` (stereo not shown) [Compound 1040], the EC50 was less than 50 nM.

For the compound `COc1ccc(-c2cnc(CNC(=O)C3CC(C(=O)Nc4ccc(F)c(Cl)c4)N(C)S(=O)(=O)N3)s2)cc1` (single isomer, unassigned) [Compound 932-ISOMER-A, N3-(3-chloro-4-fluoro-phenyl)-N5-[[5-(4-methoxyphenyl)thiazol-2-yl]methyl]-2-methyl-1,1-dioxo-1,2,6-thiadiazinane-3,5-dicarboxamide], the EC50 was in the range of 100 to 10000 nM.

Take `CN1C(C(=O)Nc2ccc(F)c(Cl)c2)CC(C(=O)NCc2ccc(C(F)(F)F)cc2)NS1(=O)=O` (stereo not shown) [Compound 481]: the EC50 lay in the range of 50 to 100 nM.

For the compound `Cc1c(CNC(=O)C2CC(C(=O)Nc3ccc(F)c(Cl)c3)N(C)S(=O)(=O)N2)nnn1-c1ccccc1` (stereo not shown) [Compound 1148], the EC50 was 100 to 10000 nM.

In the case of `CN1C(C(=O)Nc2ccc(F)c(Cl)c2)CC(C(=O)NC2CCN(c3cc(CN4CCCCC4)ccn3)CC2)NS1(=O)=O` (stereo not shown) [Compound 975], the EC50 is less than 50 nM.

For `CN1C(C(=O)Nc2ccc(F)c(Cl)c2)CC(C(=O)NC2CCOCC2)NS1(=O)=O` (stereo not shown) [Compound 738], the EC50 was 50 to 100 nM.

With `COc1ccccc1-c1ncc(CNC(=O)C2CC(C(=O)Nc3ccc(F)c(Cl)c3)N(C)S(=O)(=O)N2)s1` (stereo not shown) [Compound 987], the EC50 is less than 50 nM.

For the compound `CN1C(C(=O)Nc2ccc(F)c(Cl)c2)CC(C(=O)NC(c2ccccc2)c2cnc(-c3ccccc3Cl)s2)NS1(=O)=O` (stereo not shown) [Compound 1068], the EC50 lay within 50 to 100 nM.

For `CN1C(C(=O)Nc2ccc(F)c(Cl)c2)CC(C(=O)NCc2cnc(-c3ccc(C#N)cc3F)s2)NS1(=O)=O` (stereo not shown) [Compound 920], the EC50 is less than 50 nM.

For `Cc1nc(Cl)sc1C(NC(=O)C1CC(C(=O)Nc2ccc(F)c(Cl)c2)N(C)S(=O)(=O)N1)c1ccccc1` (stereo not shown) [Compound 1098], the EC50 is less than 50 nM.

Regarding `Cc1nc(-c2ccccn2)sc1CNC(=O)C1CC(C(=O)Nc2ccc(F)c(Cl)c2)N(C)S(=O)(=O)N1` (single isomer, unassigned) [1065-ISOMER-A, N3-(3-chloro-4-fluoro-phenyl)-2-methyl-N5-[[4-methyl-2-(2-pyridyl)thiazol-5-yl]methyl]-1,1-dioxo-1,2,6-thiadiazinane-3,5-dicarboxamide], the EC50 is 100 to 10000 nM.

As to `CN1C(C(=O)Nc2ccc(F)c(Cl)c2)CC(C(=O)NC2CCN(c3ccnc(-c4cn(C)cn4)c3)CC2)NS1(=O)=O` (stereo not shown) [Compound 1052], the EC50 is less than 50 nM.

Take `Cc1nc(CNC(=O)C2CC(C(=O)Nc3ccc(F)c(Cl)c3)N(C)S(=O)(=O)N2)sc1-c1ccccc1F` (stereo not shown) [Compound 1085]: the EC50 was less than 50 nM.

For the compound `CN1C(C(=O)Nc2ccc(F)c(Cl)c2)CC(C(=O)NCc2cnc(Cl)s2)NS1(=O)=O` (single isomer, unassigned) [1199-ISOMER-A, N3-(3-chloro-4-fluoro-phenyl)-N5-[(2-chlorothiazol-5-yl)methyl]-2-methyl-1,1-dioxo-1,2,6-thiadiazinane-3,5-dicarboxamide], the EC50 is less than 50 nM.

Take `CN1C(C(=O)Nc2ccc(F)c(Cl)c2)CC(C(=O)NC2CC2c2ccccc2)NS1(=O)=O` (stereo not shown) [Compound 476]: the EC50 was in the range of 50 to 100 nM.

In the case of `Cc1csc(CNC(=O)C2CC(C(=O)Nc3ccc(F)c(C#N)c3)N(C)S(=O)(=O)N2)n1` (stereo not shown) [Compound 828], the EC50 fell in the range of 100 to 10000 nM.

`CN1C(C(=O)Nc2ccc(F)c(Cl)c2)CC(C(=O)NCc2cnc(-c3ccccc3Cl)s2)NS1(=O)=O` (single isomer, unassigned) [Compound 912-ISOMER-A, N3-(3-chloro-4-fluoro-phenyl)-N5-[[2-(2-chlorophenyl)thiazol-5-yl]methyl]-2-methyl-1,1-dioxo-1,2,6-thiadiazinane-3,5-dicarboxamide]: the EC50 was in the range of 100 to 10000 nM.

For the compound `COc1cccc(CNC(=O)C2CC(C(=O)Nc3ccc(F)c(Cl)c3)N(C)S(=O)(=O)N2)c1` (single isomer, unassigned) [Compound 721-ISOMER-A, N3-(3-chloro-4-fluoro-phenyl)-N5-[(3-methoxyphenyl)methyl]-2-methyl-1,1-dioxo-1,2,6-thiadiazinane-3,5-dicarboxamide], the EC50 was less than 50 nM.

In the case of `CN1C(C(=O)Nc2ccc(F)c(C#N)c2)CC(C(=O)NC2CCN(C(=O)OC(C)(C)C)CC2)NS1(=O)=O` (stereo not shown) [Compound 868], the EC50 is less than 50 nM.

For the compound `CN1C(C(=O)Nc2ccc(F)c(Cl)c2)CC(C(=O)Nc2cn(C)cn2)NS1(=O)=O` (stereo not shown) [Compound 494], the EC50 was 50 to 100 nM.

For the compound `CN1C(C(=O)Nc2ccc(F)c(Cl)c2)CC(C(=O)NCc2ccccc2N2CCCCC2)NS1(=O)=O` (stereo not shown) [Compound 906], the EC50 was in the range of 100 to 10000 nM.

The values are drawn from patent publication US20230075856A1, “CYCLIC SULFAMIDE COMPOUNDS FOR TREATMENT OF HBV” (Assembly Biosciences, Inc., priority 2018, published 2023).
